Data as given in patent US7687535B2, “Substituted 3-sulfur indoles” (AstraZeneca AB, priority 2003, dated 2010).

Biological target: T1, rhCRTh2 (Homo sapiens, UniProt Q9Y5Y4)
T1 construct: expressed in transfected cells; host or cells: HEK cells (membrane preparation)
T1 sequence (Q9Y5Y4 1-395): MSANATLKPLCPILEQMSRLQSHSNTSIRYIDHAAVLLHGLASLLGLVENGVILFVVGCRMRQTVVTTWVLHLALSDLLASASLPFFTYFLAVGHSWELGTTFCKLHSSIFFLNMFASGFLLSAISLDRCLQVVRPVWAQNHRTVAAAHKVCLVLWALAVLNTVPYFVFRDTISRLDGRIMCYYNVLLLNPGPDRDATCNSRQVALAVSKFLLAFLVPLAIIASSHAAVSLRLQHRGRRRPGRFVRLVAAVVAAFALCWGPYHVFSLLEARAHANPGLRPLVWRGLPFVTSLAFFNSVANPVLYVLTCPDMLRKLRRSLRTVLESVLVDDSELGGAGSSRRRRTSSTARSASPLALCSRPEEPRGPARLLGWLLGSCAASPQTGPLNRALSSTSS
Test: Ligand Binding Assay ([3H]PGD2 SPA, HEK cell membranes)
Conditions: [3H]PGD2 binding to membranes of HEK cells expressing rhCRTh2/Gα16, SPA beads, 2 hours at room temperature
Method: [^3H]PGD2 was purchased from Perkin Elmer Life Sciences with a specific activity of 100-210 Ci/mmol. All other chemicals were of analytical grade.
HEK cells expressing rhCRTh2/Gα16 were routinely maintained in DMEM containing 10% Foetal Bovine Serum (HyClone), 1 mg/ml geneticin, 2 mM L-glutamine and 1% non-essential amino acids. For the preparation of membranes, the adherent transfected HEK cells were grown to confluence in two layer tissue culture factories (Fisher, catalogue number TKT-170-070E). Maximal levels of receptor expression were induced by addition of […] sodium butyrate for the last 18 hours of culture. The adherent cells were washed once with phosphate buffered saline (PBS, 50 ml per cell factory) and detached by the addition of 50 ml per cell factory of ice-cold membrane homogenisation buffer [20 mM HEPES (pH 7.4), 0.1 mM dithiothreitol, 1 mM EDTA, 0.1 mM phenyl methyl sulphonyl fluoride and 100 μg/ml bacitracin]. […] The final pellet was re-suspended in 4 ml of membrane homogenisation buffer per cell factory used and the protein content determined. […]
All assays were performed in Corning clear bottomed, white 96-well NBS plates (Fisher). […] (The optimum coating concentrations were determined for each batch of membranes) The beads were pelleted by centrifugation (800×g for 7 minutes at 4° C.), washed once with assay buffer (50 mM HEPES pH 7.4 containing 5 mM magnesium chloride) and finally re-suspended in assay buffer at a bead concentration of 10 mg/ml.
Each assay contained 20 μl of 6.25 nM [^3H]PGD2, 20 μl membrane saturated SPA beads both in assay buffer and 10 μl of compound solution or 13,14-dihydro-15-keto prostaglandin D2 (DK-PGD2, for determination of non-specific binding, Cayman chemical company). […] The assay plate was incubated at room temperature for 2 hours and counted on a Wallac Microbeta liquid scintillation counter (1 minute per well).

Compared with `Cc1noc(C)c1-c1ccc2c(c1)c(Sc1ccc(S(C)(=O)=O)cc1)c(C)n2CC(=O)O` [Example 34, 5-(3,5-Dimethyl-4-isoxazolyl)-2-methyl-3-[[4-(methylsulfonyl)phenyl]thio]-1H-indole-1-acetic acid], `Cc1c(Sc2ccc(S(C)(=O)=O)cc2)c2c(-c3cccs3)cccc2n1CC(=O)O` [Example 26, 2-Methyl-3-[[4-(methylsulfonyl)phenyl]thio]-4-(2-thiophenyl)-1H-indole-1-acetic acid] is 11-fold higher in IC50: 0.398 nM for the first, 4.47 nM for the second.

For `CCN(C(C)=O)c1cccc2c1c(Sc1ccc(Cl)cc1)c(C)n2CC(=O)O` [Example 14, 4-(Acetylethylamino)-3-[(4-chlorophenyl)thio]-2-methyl-1H-indole-1-acetic acid], the IC50 was 224 nM.

Test system: not given
Test: not given
Conditions: not given

First: Cc1c(Sc2ccc(Cl)cc2)c2cc(NS(C)(=O)=O)ccc2n1CC(=O)O [Example 7, 3-[(4-Chlorophenyl)thio]-2-methyl-5-[(methylsulfonyl)amino]-1H-indole-1-acetic acid]
Second: COc1ccc(Sc2c(C)n(CC(=O)O)c3ccc(NS(C)(=O)=O)cc23)cc1 [Example 9, 3-[(4-Methoxyphenyl)thio]-2-methyl-5-[(methylsulfonyl)amino]-1H-indole-1-acetic acid]
The melting point of the first is lower: 214 °C for the first, 215 °C for the second.

Compared with `Cc1c(Sc2ccc(Cl)cc2)c2c(NC(=O)C3CC3)cccc2n1CC(=O)O` [Example 15], `Cc1c(Sc2ccc(Cl)cc2)c2c(NC(=O)c3ccccc3)cccc2n1CC(=O)O` [Example 16, 4-(Benzoylamino)-3-[(4-chlorophenyl)thio]-2-methyl-1H-indole-1-acetic acid] is higher in melting point: 183 to 185 °C for the first, 213 to 215 °C for the second.

Going from `Cc1c(Sc2ccccc2C(F)(F)F)c2cc(NS(C)(=O)=O)ccc2n1CC(=O)O` [Example 10, 3-[(2-Trifluoromethylphenyl)thio]-2-methyl-5-[(methylsulfonyl)amino]-1H-indole-1-acetic acid] to `Cc1c(Sc2ccccc2Cl)c2cc(NS(C)(=O)=O)ccc2n1CC(=O)O` [Example 5, 3-[(2-Chlorophenyl)thio]-2-methyl-5-[(methylsulfonyl)amino]-1H-indole-1-acetic acid], the melting point rises from 207 °C to 212 °C.

Going from `Cc1c(Sc2cccc(Cl)c2)c2cc(NS(C)(=O)=O)ccc2n1CC(=O)O` [Example 6, 3-[(3-Chlorophenyl)thio]-2-methyl-5-[(methylsulfonyl)amino]-1H-indole-1-acetic acid] to `COc1cccc(Sc2c(C)n(CC(=O)O)c3ccc(NS(C)(=O)=O)cc23)c1` [Example 8, 3-[(3-Methoxyphenyl)thio]-2-methyl-5-[(methylsulfonyl)amino]-1H-indole-1-acetic acid], the melting point rises from 224 °C to 292 °C.

Compared with `Cc1c(Sc2cccc(S(C)(=O)=O)c2)c2cc(NS(C)(=O)=O)ccc2n1CC(=O)O` [Example 30, 2-Methyl-5-[(methylsulfonyl)amino]-3-[[3-(methylsulfonyl)phenyl]thio]-1H-indole-1-acetic acid], `Cc1c(Sc2ccccc2S(C)(=O)=O)c2cc(NS(C)(=O)=O)ccc2n1CC(=O)O` [Example 31, 2-Methyl-5-[(methylsulfonyl)amino]-3-[[2-(methylsulfonyl)phenyl]thio]-1H-indole-1-acetic acid] is lower in melting point: 233 to 236 °C for the first, 227 to 230 °C for the second.

Compared with `Cc1c(Sc2ccccc2C(C)C)c2cc(NS(C)(=O)=O)ccc2n1CC(=O)O` [Example 12, 3-[(2-(Methylethyl)phenyl)thio]-2-methyl-5-[(methylsulfonyl)amino]-1H-indole-1-acetic acid], `Cc1c(Sc2cccc3cccnc23)c2cc(NS(C)(=O)=O)ccc2n1CC(=O)O` [Example 11, 3-[(8-Quinolinyl)thio]-2-methyl-5-[(methylsulfonyl)amino]-1H-indole-1-acetic acid] is higher in melting point: 160 °C for the first, 257 °C for the second.

In the case of `Cc1c(Sc2ccc(S(C)(=O)=O)cc2)c2cc(-c3cncnc3)ccc2n1CC(=O)O` [Example 32], the melting point is reported as > 290 °C.
